Residues, ends and D or L forms follow the SMILES beside them.
Experiments:
cancer cells [1] = experiment: H1299.3 15-mer cell binding and autophagosome co-localization; assay type: cell-based
Procedure: (§1) A modified MGS peptide (SEQ ID NO: 31) that fuses amino acids 1-5 and 11-20 of the original MGS peptide: LQWRRNFGVWARYRL (SEQ ID NO: 31) was assessed.

NSCLC tumor = experiment: H1299.3 15-mer in vivo tumor targeting
Procedure: as §1

H1299 cells = experiment: Confocal microscopy, organelle co-localization; assay type: cell-based, human; settings: over time
Procedure: Confocal Microscopy. Plasmids with organelle specific markers labeled with GFP were purchased from Addgene and electroporated into H1299 cells. After G418 selection, GFP-labeled tumor cells were plated on 8 well chamber slides on the day previous to the study. Biotinylated peptide was conjugated to streptavidin-AlexaFluor 555 (1:1) for 30 min at RT and quenched with RPMI, then added to the wells at 50 nM. After 1 hour incubation cells were washed for 5 min 3× with PBS, 2× acid rinses, and 1×PBS rinse. Cells were fixed in 2% formaldehyde for 10 min, washed with PBS, stained with DAPI in mounting media and coverslip was added. Microscopy was acquired on a Zeiss LSM 700 with a Pln Apo 63×/1.4 oil DIC III objective. Compressed images were obtained using ImageJ software maximal intensity projections.
For the microscopy experiments, cells are treated with a peptide (e.g., a MGS peptide) that has a dye on it for one hour. If the peptide enters the cell(s), the dye will also enter the cell(s) (see, FIG. 1). Next, the cells are washed and fixed to glass plate. Other parts of the cell (e.g., cell membrane, organelles or nucleus) are stained. Fluorescent microscopy is performed to assess the dyes in the cells. Confocal microscopy is used to take a series of sliced images that can be used to build a 3D picture (like an MRI).

[2] = tested on: NSCLC and other tumor cells; experiment: Peptide binding/internalization in tumor cell lines; assay type: cell-based, human
Procedure: (§2) Flow Cytometry. Biotinylated peptide was conjugated to streptavidin-R-phycoerythrin (1:1) for 30 min at RT. The remaining binding sites on streptavidin were quenched with RPMI 1640 and solution diluted to 25 nM. Tumor cells were grown to 90% confluency in a 12 well plate, then incubated with 500 μl peptide-dye conjugate for 1 hour at 37 C. After 1 hour, peptide was removed and the cells were washed 3× with PBS for 5 min, 2× with acid rinse, and 1×PBS rinse. Added 300 μl trypsin until cells lifted then added 700 μl RPMI+5% FBS to inactivate the trypsin. Cells were transferred to a flow tube, and put on ice in the dark. Flow cytometry was run on BD FACSCelesta and data were analyzed on Flowing software. A region containing <5% of the cells in the negative control is established and the McGuire score is calculated for each sample by multiplying the % of positive cells by the fluorescence intensity.
(§3) For the flow cytometry experiments, cells are treated with a peptide (e.g., a MGS peptide) that has a dye on it for one hour. If the peptide enters the cell(s), the dye will also enter the cell(s) (see, FIG. 11). Next, the cells are washed and placed in a tube to run flow cytometry. The flow cytometer can measure the brightness of 10,000 or more individual cells.
Phage blocking was used as a control. HCC15.2 was internalized by a specific panel of cell lines and not others.

normal HBEC's = experiment: Flow cytometry binding of peptide-dye conjugate, normal HBEC; assay type: cell-based
Procedure: as §2, §3

LC line H1299 = experiment: Flow cytometry binding of peptide-dye conjugate, H1299; assay type: cell-based, human
Procedure: as §2, §3

cancer cells [3] = experiment: Cancer cell killing assay; assay type: cell-based; settings: unconjugated
Procedure: A cancer cell killing assay was performed (see, FIG. 22). Cancer cells were put into a dish. After 24 hours, cells were given different doses of peptide-saporin for 1 hour. Peptide-saporin was washed off and cells were left for 72 more hours. Assay to measure live cells performed.

[4] = Solubility of H1299.3 15-mer; assay type: physicochemical; settings: effect of acetylation

With LQWRRNFGVWARYRL [SEQ ID NO: 31] the cancer specificity (cancer cells [1]; cancer versus normal cell binding) was “maintains its cancer specificity”, the “trafficking to the autophagosome” value (cancer cells [1]; versus original peptide) was “increases its ability to traffic to the autophagosome” and the “tumor targeting in vivo” value (NSCLC tumor; NSCLC tumor in an animal) was “hones to a NSCLC tumor”. The “reduction in heart, lung and kidney tumors” value (NSCLC tumor; in vivo) was over 2 fold.

For FHAVPQSFYTAP [HCC15.2], the lysosome localization (H1299 cells) was “accumulates in the lysosome over time”, the “binding to cell line panel” value [2] was “binds to a specific subset of NSCLC and other tumor cells” and the internalization ([2]; at 4° C.) was “does not internalize”. The “effect of tetramerization on receptor mediated internalization” value ([2]; tetramer compared to monomer) was “does not significantly improve”, the internalization ([2]; treating with trypsin 2 min before adding peptide) was “no internalization” and the “binding by flow cytometry” value (normal HBEC's) was “does not bind”. The “binding by flow cytometry” value (LC line H1299) was “binds”.

With FHAVPQSFYT [SEQ ID NO: 3] the “effect of acetylation on binding of the truncated peptide” value ([2]; N-terminal acetylation) was “improves binding”.

With “saporin: ribosome inactivating protein (RIP, 34 KD) with no cell entry domain; plant toxin” the cell entry (cancer cells [3]) was “did not enter the cell by itself”.

With `CC(=O)N[C@@H](CC(C)C)C(=O)N[C@@H](CCC(N)=O)C(=O)N[C@@H](Cc1c[nH]c2ccccc12)C(=O)N[C@@H](CCCNC(=N)N)C(=O)N[C@@H](CCCNC(=N)N)C(=O)N[C@@H](CC(N)=O)C(=O)N[C@@H](Cc1ccccc1)C(=O)NCC(=O)N[C@H](C(=O)N[C@@H](Cc1c[nH]c2ccccc12)C(=O)N[C@@H](C)C(=O)N[C@@H](CCCNC(=N)N)C(=O)N[C@@H](Cc1ccc(O)cc1)C(=O)N[C@@H](CCCNC(=N)N)C(=O)N[C@@H](CC(C)C)C(=O)O)C(C)C` [1299.3 Ac-15mer] (Ac-LQWRRNFGVWARYRL-OH; N-terminus and C-terminus assumed) the degradation in vivo (NSCLC tumor; effect of acetylation) was “protects degradation in vivo” and the solubility [4] was “improves solubility”.

Source: patent US12576157B2, “Peptide saporin conjugate for the treatment of cancer” (SRI International, priority 2017, dated 2026)
